{
  "source": "patent US20210236476A1",
  "about": "“METHODS OF TREATING CANCER WITH SMALL MOLECULE PD-L1 INHIBITORS” (CHEMOCENTRYX, INC., priority 2018, published 2021)",
  "key": {"hCD11C+hCD3- cells": {"system": "hCD11C+hCD3- cells", "test": "PD-L1 Surface Expression Assay (FACS)", "assay_type": "cell-based, human", "conditions": "16 hours, FIG. 2C", "description": "Briefly, this assay was performed as follows: Cells were seeded in 12 well plates. Test compounds or antibodies were added for 16 hours at different concentrations. Cells were washed and stained with anti-human PD-L1, anti-human CD11C and anti-human CD3 for 20 minutes at RT before performing FACS analysis. Matching isotype was used as a control."}, "[1]": {"system": "human T-cells in A375 tumors", "test": "tumor microenvironment analysis by flow cytometry (therapeutic dosing study)", "assay_type": "in vivo, NOD/SCID mice", "conditions": "compared to vehicle", "description": "The tumor microenvironement of vehicle and Compound 1.041 treatments from the above experiment were further explored by dissecting, mincing and digested with collagenase D the tumors from relevant mice for analysis by flow cytometry. Briefly, this assay was performed as follows: Excised tumors were finely chopped with a blade and digested for 60 minutes at 37° C. in MSS 1X containing 2mg/ml of collagenase D and 1U/ml of DNAse I. Single cells were washed and resuspended in FACS buffer (PBS 1X with 10% FBS and 0.1% azide) containing the following monoclonal antibodies (hCD4 in FITC, PD-L1 in PE, CD3 in PercP-Cy5.5, CD45 in PE-Cy7, PD-1 in APC, CD8a in APC-Cy7, CD69 in Pacific Blue and LIVE/DEAD fixable Aqua stain). Isotype-matched controls were used as negative controls. Flow cytometry data were acquired with a FACSCanto II (BD Biosciences, San Jose, Calif.) cytometer and analyzed using FlowJO. […] The flow cytometer was gated on live cells singlets, hCD45^+ and hCD3^+ cells."}, "human PBMCs": {"system": "human PBMCs", "test": "T-Cell Exhaustion assay (SEB)", "assay_type": "cell-based", "conditions": "human PBMCs stimulated with 100ng/mL SEB for three days; FIG. 2A"}, "[2]": {"system": "A375 human melanoma cells", "test": "therapeutic dosing, A375 melanoma/PBMC co-implantation model", "assay_type": "in vivo, NOD/SCID mice", "conditions": "established A375 tumors co-injected with human PBMCs; Compound 1.041 30mg/kg bid, anti-hPD-L1 5 mg/kg i.p., from day 28", "text": "(§1) Co-crystallized human PD-1/PD-L1 provided structural information from which we developed a number of small molecule checkpoint inhibitors. Active compounds were first profiled by an ELISA assay measuring inhibition of the PD-1/PD-L1 interaction, followed by functional cell-based reporter and mixed lymphocyte reaction (MLR) assays. PD-1/PD-L1 inhibitory compounds thus identified were further selected for in vivo model testing.\nAs briefly described in Example 1 the therapeutic activity of Compound 1.041 was tested using immunodeficient NOD/SCID mice (NOD.CB17-Prkdc^scid/NCrHsd) where A375 human melanoma cells were co-implanted along with human peripheral blood mononuclear cells (PBMCs). The mice were broken into 4 groups (n=7 each group): +PBMCs+Vehicle; +PBMCs+Compound 1.041; +PBMCs +Isotype antibody; and +PBMCs+anti-hPD-L1. Anti-hPD-L1 and isotype matched control antibody were injected i.p. at 5 mg/kg on day 28, 32, 36, 40, and 44. Compound 1.041 (30mg/kg) and vehicle dose (1% HPMC) p.i. twice daily (bid) starting on day 28."}, "[3]": {"target": "recombinant PD-L1 proteins (dimerization) (Homo sapiens, UniProt Q9NZQ7)", "sequence (Q9NZQ7 19-239 limits assumed)": "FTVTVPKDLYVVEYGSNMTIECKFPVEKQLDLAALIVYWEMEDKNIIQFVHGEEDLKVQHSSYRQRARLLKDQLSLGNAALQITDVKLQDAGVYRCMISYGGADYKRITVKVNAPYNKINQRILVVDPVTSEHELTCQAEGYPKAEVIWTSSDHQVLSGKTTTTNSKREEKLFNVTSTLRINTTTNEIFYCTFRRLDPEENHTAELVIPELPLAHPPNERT", "test": "dimerization ELISA assay", "assay_type": "binding", "conditions": "FIG. 1B", "description": "The activity of Compound 1.041 was assessed with an ELISA assay assessing the direct binding of recombinant PD-1 and PD-L1 proteins (FIG. 1A), a dimerization ELISA assay assessing the direct binding/dimerization of recombinant PD-L1 proteins (FIG. 1B), a cell based assay measuring the downstream signaling following the interaction of PD-1 and PD-L1 using a Luciferase reporter assay with cell lines overexpressing PD-1 and PD-L1 (FIG. 1C), and a mixed lymphocyte reaction assay measuring the functional outcome of upregulation of IFNg secretion, using allogenic primary human immune cells (FIG. 1D). Briefly, the mixed lymophocyte reaction assay was performed as follows: Dendritic cells and CD4+T Cells from unmatched donors were cultured together for 5 days in 96 well-flat bottom plates. Test compound was added as indicated at starting concentration of 1 μM with 1:4 dilutions with DMSO. Supernatants were harvested after 5 days of incubation and detection of human IFNg was performed by ELISA."}, "[4]": {"system": "A375 human melanoma cells", "test": "prophylactic dosing, A375 melanoma/PBMC co-implantation model", "assay_type": "in vivo, NOD/SCID mice", "conditions": "Compound 1.041 30mg/kg bid, anti-hPD-L1 5 mg/kg i.p.", "text": "as §1\nAs briefly described in Example 1, the prophylactic activity of Compound 1.041 was tested using immunodeficientp NOD/SCID mice (NOD.CB17-Prkdc^scid/NCrHsd) where A375 human melanoma cells were co-implanted along with human peripheral blood mononuclear cells (PBMCs). The mice were broken into 8 groups (n =10 each group): +/−PBMCs+Vehicle; +/−PBMCs+Compound 1.041; +/−PBMCs+Isotype antibody; and +/−PBMCs+anti-hPD-L1. Anti-hPD-L1 and isotype matched control antibody were injected i.p. at 5 mg/kg on day 1, 5, 9, 13, and 17. Compound 1.041 (30mg/kg) and vehicle dose (1% HPMC) p.i. twice daily (bid) starting on day 1."}, "[5]": {"target": "T1, human PD-L1 / human PD-1 interaction (Homo sapiens, UniProt Q9NZQ7)", "T1 construct": "purchased R&D (PD-L1); ACRO Biosystems (PD-1, biotin)", "T1 sequence (Q9NZQ7 19-239 limits assumed)": "as above", "test": "ELISA of PD-1/PD-L1 interaction", "assay_type": "binding", "conditions": "FIG. 1, stated collectively for the assays", "outline": "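Plates coated with 1 μg/mL human PD-L1 and blocked with BSA; serially diluted (1:5) compounds plus biotinylated human PD-1 (0.3 μg/mL) incubated 1 h at 37° C. Bound PD-1 detected with streptavidin-HRP/TMB, absorbance at 450 nm.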"}, "MDA-MB-231 cells": {"system": "MDA-MB-231 cells", "test": "flow cytometry of PD-L1 surface staining with acid wash", "assay_type": "cell-based, human", "conditions": "FIG. 3", "description": "To further investigate the possibility that Compound 1.041 reduces PD-L1 surface expression, flow cytometry analysis was formed on MDA-MB-231 cells after PD-L1 surface staining. An acid-wash protocol (cells were washed 3 times (5 minutes with shaking) with cold acid wash buffer (DMEM containing 0.2% BSA and adjusted to a 3.5 pH) followed by 3 washes (5 minutes with shaking) with ice cold PBS 1X) was used to confirm that differences in PD-L1 cell surface staining was not due to tested article interfering with detection antibody binding."}},
  "note": "“Also recorded” adds a separate entry of the source.",
  "data": [
    {"smiles": "C[C@@](CO)(NCc1cc(Cl)c(O[C@H]2CCc3c(-c4cccc(OCCCN5CC(O)C5)c4Cl)cccc32)cc1OCc1cncc(C#N)c1)C(=O)O", "note": "[Compound 1.041, (S)-2-((5-chloro-4-(((S)-4(2-chloro-3-(3-(3-hydroxyazetidin-1-yl)propoxy)phenyl)-2,3-dihydro-1H-inden-1-yl)oxy)-2-((5-cyanopyridin-3-yl)methoxy)benzyl)amino)-3-hydroxy-2-methylpropanoic acid]", "values": [
      {"measurement": "PD-L1 surface expression", "setting": "hCD11C+hCD3- cells", "value": "significantly reduced PD-L1 surface expression"},
      {"measurement": "PD-1 expression (mean fluorescence intensity)", "setting": "[1]; human CD8+ T-cells from treated mice, FIG. 10", "value": "reduction in PD-1 expression"},
      {"measurement": "percentage of hCD8+ T-Cells in contrast to hCD4+ T-Cells", "setting": "[1]; tumors, FIG. 9A-B", "value": "increases the percentage of hCH8^+ T-cells relative to hCH4^+ T-cells"},
      {"measurement": "ratio of hCD8+/hCD4+ T-cells", "setting": "[1]; tumors, FIG. 9C", "value": "significantly higher CD8^+ T-Cell/CD4^+ T-cell ratio"},
      {"measurement": "reversal of T cell exhaustion phenotype (IFN-g induction by SEB)", "setting": "human PBMCs", "value": "reversed T cell exhaustion phenotype; also recorded: reverses T-Cell exhaustion phenotype"},
      {"measurement": "relative tumor growth", "setting": "[2]", "value": "reduced tumor growth in vivo to a similar extent as the positive control anti-human PD-L1 antibody; also recorded: significant inhibitory effect"},
      {"measurement": "induction of hPD-L1 dimerization", "setting": "[3]", "value": "induction of hPD-L1 dimerization"},
      {"measurement": "tumor growth", "setting": "[4]; A375 cells + co-injected hPBMCs, from day 1", "value": "reduced tumor growth in vivo to a similar extent as the positive control anti-human PD-L1 antibody; also recorded: inhibited tumor growth"},
      {"measurement": "tumor growth", "setting": "[4]; A375 cells alone (no hPBMCs)", "value": "no effect on A375 tumor growth"},
      {"measurement": "blocking of PD-1/PD-L1 interaction", "setting": "[5]", "value": "highly potent and blocks PD-1/PD-L1 interaction"},
      {"measurement": "PD-L1 surface staining", "setting": "MDA-MB-231 cells", "value": "reduced PD-L1 surface staining intensive; also recorded: PD-L1 expression decreases"}
    ]}
  ]
}
